Experimental data published in patent US10730829B2, “Compound exhibiting anti-oxidative or anti-inflammatory activity” (University-Industry Cooperation Group of Kyung Hee …, priority 2016, dated 2020).

System: Raw 264.7 cells
Experiment: Inhibition of LDH release from Ox-LDL-oxidised Raw 264.7 cells (WST absorbance)
Assay type: cell-based
Details: Ox-LDL 100 μg/mL, compared to the positive control group (LDH release rate 30%)
Procedure: To confirm the anti-oxidative effect of the compounds according to the present invention, the amount of lactate dehydrogenase (LDH), which is a material released from cells killed or damaged by oxidation, was measured by measuring the absorbance using water soluble tetrazolium salt (WST) to measure cytotoxicity. Specifically, Raw 264.7 cells, in which oxidation was induced with 100 μg/mL of oxidized low-density lipoprotein (Ox-LDL), were treated with test materials (2 kinds of comparative groups and 2 kinds of experimental groups) at 1 μM and 10 μM concentrations, respectively, and their ability to inhibit LDH release (i.e., a standard indicator of anti-oxidative effects) was confirmed. As reference, the LDH release rate in the negative control group in which no treatment was made was 7% and the LDH release rate in the positive control group treated with only Ox-LDL was 30%.

Structure (SMILES) | decrease of LDH release rate (1 μM) [%] | decrease of LDH release rate (10 μM) [%]
CC(=O)NC(CSCCCSCC(NC(C)=O)C(=O)O)C(=O)O (centres unmarked) [Newcompound-2, 2,14-dioxo-6,10-dithia-3,13-diazapentadecan-4,12-dicarboxylic acid] | 11 | 20
CC(=O)NC(CSCCCSCC(N)C(=O)O)C(=O)O (centres unmarked) [Newcompound-1, 2-acetamido-3-(3-(2-amino-2-carboxyethylthio)propylthio)propanoic acid] | 12 | 21
CC(=O)N[C@@H](CS)C(=O)O [NAC, N-acetyl-L-cysteine] | 6 | 13
C=CCSC[C@H](N)C(=O)O [SAC, S-allyl-L-cysteine] | 7 | 16
